Results taken from ChEMBL document CHEMBL5528074 (J Med Chem, 2024).
One block for each compound: values may come before it. Active and inactive are the calls of the source. The calls are words filed in the database; no cut-off is given here.

Experiments:
[1] = target: T1, G-protein coupled receptor 183 (Homo sapiens, UniProt P32249)
Description: Antagonist activity at GPR183 (unknown origin) transfected in HEK293 cells incubated for 30 mins by Glosensor cAMP assay

[2] = Metabolic stability in dog liver microsomes assessed as half life at 10 uM incubated for 60 mins in presence of NADPH/UDPGA by LC-MS/MS analysis; assay type: ADME, Canis lupus familiaris, Microsome
[3] = target: T1, G-protein coupled receptor 183; experiment: Antagonist activity at GPR183 (unknown origin) transfected in HEK293 cells co-expressing LgBiT-fused SmBiT-beta-arrestin assessed as reduction in beta-arrestin recruitment using nanoluciferase as substrate incubated for 30 mins by bioluminescence based NanoBiT assay; assay type: functional, cell-based
Mus musculus [4] = experiment: Antiinflammatory activity against DSS-induced colitis C57BL/6 mouse model assessed as increase in CREB phosphorylation level at 3 to 10 mg/kg, po by immunohistochemical analysis; assay type: functional, organism-based; settings: dose 3-10 mg/kg
U-937 [5] = experiment: Antiinflammatory activity in human U-937 cells assessed as reversal of 7alpha,25-dihydroxycholesterol induced TNFA gene expression at 0.1 to 10 uM incubated for 24 hrs by qPCR analysis; assay type: functional, cell-based; settings: dose 0.1-10 µM
[6] = target: T1, G-protein coupled receptor 183; experiment: Antagonist activity at GPR183 (unknown origin) transfected in HEK293 cells cotransfected with CRE-luciferase plasmid assessed as restoration of luciferase activity preincubated for 30 mins followed by 7alpha,25-dihydroxycholesterol induction and measured after 4 hrs by dual luciferase assay; assay type: functional, cell-based
[7] = Half life in C57BL/6 mouse at 3 mg/kg, po measured upto 24 hrs by LC-MS/MS analysis; assay type: ADME, organism-based; settings: in vivo
[8] = Metabolic stability in rat liver microsomes assessed as compound remaining at 1 uM incubated for 60 mins in presence of NADPH/UDPGA by LC-MS/MS analysis; assay type: ADME, Microsome; settings: read-out: Stability
[9] = Cmax in C57BL/6 mouse at 3 mg/kg, po measured upto 24 hrs by LC-MS/MS analysis; assay type: ADME, organism-based; settings: in vivo
[10] = Cmax in C57BL/6 mouse at 1 mg/kg, iv measured upto 24 hrs by LC-MS/MS analysis; assay type: ADME, organism-based; settings: in vivo
U-937 [11] = experiment: Antiinflammatory activity in human U-937 cells assessed as reversal of 7alpha,25-dihydroxycholesterol induced IL1B gene expression at 0.1 to 10 uM incubated for 24 hrs by qPCR analysis; assay type: functional, cell-based; settings: dose 0.1-10 µM
[12] = Oral bioavailability in C57BL/6 mouse at 3 mg/kg measured upto 24 hrs by LC-MS/MS analysis; assay type: ADME, organism-based; settings: in vivo
[13] = Half life in C57BL/6 mouse at 1 mg/kg, iv measured upto 24 hrs by LC-MS/MS analysis; assay type: ADME, organism-based; settings: in vivo
[14] = Toxicity in C57BL/6 mouse assessed as effect on spleen at 3 mg/kg, po by H and E staining based analysis; assay type: organism-based; settings: in vivo
[15] = Metabolic stability in monkey liver microsomes assessed as compound remaining at 1 uM incubated for 60 mins in presence of NADPH/UDPGA by LC-MS/MS analysis; assay type: ADME, Macaca mulatta, Microsome; settings: rhesus monkey, 1 h
[16] = Apparent volume of distribution in C57BL/6 mouse at 1 mg/kg, iv measured upto 24 hrs by LC-MS/MS analysis; assay type: ADME, organism-based; settings: in vivo, read-out: Vz
[17] = Toxicity in C57BL/6 mouse assessed as effect on liver at 3 mg/kg, po by H and E staining based analysis; assay type: organism-based; settings: in vivo
[18] = Metabolic stability in dog liver microsomes assessed as compound remaining at 1 uM incubated for 60 mins in presence of NADPH/UDPGA by LC-MS/MS analysis; assay type: ADME, Canis lupus familiaris, Microsome; settings: read-out: Stability
U-937 [19] = experiment: Antimigratory activity against human U-937 cells assessed as inhibition of 7alpha,25-dihydroxycholesterol induced cell migration by CCK-8 method; assay type: functional, cell-based
Mus musculus [20] = experiment: Antiinflammatory activity against DSS-induced colitis C57BL/6 mouse model assessed as reduction in disease activity index (DAI) score at 3 mg/kg, po measured for 8 days; assay type: functional, organism-based; settings: time 8.0 day
Mus musculus [21] = experiment: Antiinflammatory activity against DSS-induced colitis C57BL/6 mouse model assessed as reduction in Il1-beta expression in colon at 3 to 10 mg/kg, po; assay type: functional, organism-based; settings: dose 3-10 mg/kg
[22] = Toxicity in C57BL/6 mouse assessed as effect on lung at 3 mg/kg, po by H and E staining based analysis; assay type: organism-based; settings: in vivo
[23] = Clearance in C57BL/6 mouse at 1 mg/kg, iv measured upto 24 hrs by LC-MS/MS analysis; assay type: ADME, organism-based; settings: in vivo
[24] = Metabolic stability in human liver microsomes assessed as compound remaining at 1 uM incubated for 60 mins in presence of NADPH/UDPGA by LC-MS/MS analysis; assay type: ADME, Microsome; settings: 1 h
[25] = Metabolic stability in monkey liver microsomes assessed as half life at 10 uM incubated for 60 mins in presence of NADPH/UDPGA by LC-MS/MS analysis; assay type: ADME, Macaca mulatta, Microsome; settings: rhesus monkey, 1 h
Mus musculus [26] = experiment: Antiinflammatory activity against DSS-induced colitis C57BL/6 mouse model assessed as amelioration of inflammatory response at 3 to 10 mg/kg, po by H and E staining based analysis; assay type: functional, organism-based; settings: dose 3-10 mg/kg
[27] = target: T1, G-protein coupled receptor 183; experiment: Antagonist potency at GPR183 (unknown origin) transfected in HEK293 cells by schild plot analysis; assay type: cell-based; settings: read-out: pA2 (converted)
[28] = Metabolic stability in mouse liver microsomes assessed as half life at 10 uM incubated for 60 mins in presence of NADPH/UDPGA by LC-MS/MS analysis; assay type: ADME, Microsome; settings: 1 h
[29] = Toxicity in C57BL/6 mouse assessed as drug tolerance at 3 mg/kg, po by H and E staining based analysis; assay type: organism-based; settings: in vivo
Mus musculus [30] = experiment: Antiinflammatory activity against C57BL/6 mouse assessed as mitigation of DSS induced body weight loss administered as po measured for 10 days; assay type: functional, organism-based; settings: dose 3-10 mg/kg, time 10.0 day
[31] = Toxicity in C57BL/6 mouse assessed as effect on heart at 3 mg/kg, po by H and E staining based analysis; assay type: organism-based; settings: in vivo
U-937 [32] = experiment: Cytotoxicity against human U-937 cells measured after 72 hrs by CCK8 method; assay type: functional, cell-based
[33] = Toxicity in C57BL/6 mouse assessed as effect on kidney at 3 mg/kg, po by H and E staining based analysis; assay type: organism-based; settings: in vivo
[34] = Metabolic stability in mouse liver microsomes assessed as compound remaining at 1 uM incubated for 60 mins in presence of NADPH/UDPGA by LC-MS/MS analysis; assay type: ADME, Microsome; settings: 1 h
Mus musculus [35] = experiment: Antiinflammatory activity against DSS-induced colitis C57BL/6 mouse model assessed as amelioration of colonic damage at 3 to 10 mg/kg, po by H and E staining based analysis; assay type: functional, organism-based; settings: dose 3-10 mg/kg
[36] = target: T1, G-protein coupled receptor 183; experiment: Antagonist activity at GPR183 (unknown origin) transfected in HEK293 cells assessed as reversal of 7alpha,25-Dihydroxycholesterol induced cAMP reduction incubated for 30 mins by Glosensor cAMP assay; assay type: functional, cell-based
[37] = AUC infinity in C57BL/6 mouse at 1 mg/kg, iv measured upto 24 hrs by LC-MS/MS analysis; assay type: ADME, organism-based; settings: in vivo
Mus musculus [38] = experiment: Antiinflammatory activity against DSS-induced colitis C57BL/6 mouse model assessed as reduction in Tnf-alpha expression in colon at 3 to 10 mg/kg, po; assay type: functional, organism-based; settings: dose 3-10 mg/kg
[39] = Metabolic stability in human liver microsomes assessed as half life at 10 uM incubated for 60 mins in presence of NADPH/UDPGA by LC-MS/MS analysis; assay type: ADME, Microsome; settings: 1 h
[40] = AUC infinity in C57BL/6 mouse at 3 mg/kg, po measured upto 24 hrs by LC-MS/MS analysis; assay type: ADME, organism-based; settings: in vivo
[41] = Metabolic stability in mouse liver microsomes assessed as intrinsic clearance; assay type: ADME, Microsome; settings: read-out: CLH
[42] = target: T1, G-protein coupled receptor 183; experiment: Antagonist activity at GPR183 (unknown origin) incubated for 30 mins by calcium mobilization assay; assay type: functional

T1 sequence (P32249 whole entry): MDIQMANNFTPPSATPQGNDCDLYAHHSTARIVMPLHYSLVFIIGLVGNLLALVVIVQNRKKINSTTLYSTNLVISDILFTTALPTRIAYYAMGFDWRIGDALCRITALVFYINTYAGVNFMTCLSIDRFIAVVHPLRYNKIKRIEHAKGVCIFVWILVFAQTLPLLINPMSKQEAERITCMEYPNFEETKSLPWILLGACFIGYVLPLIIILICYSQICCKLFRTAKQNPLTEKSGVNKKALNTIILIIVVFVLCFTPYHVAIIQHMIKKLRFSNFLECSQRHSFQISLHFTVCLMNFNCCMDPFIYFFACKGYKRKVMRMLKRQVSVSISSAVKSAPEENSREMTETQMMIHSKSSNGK

SMILES: COc1ccc(NC(=O)CC2CCN(C(=O)/C=C/c3ccc(Br)cc3)CC2)cc1
IC50 [1]: 19.7 nM

SMILES: Nc1nc2ccc(C(=O)N3CCN(C(=O)/C=C/c4ccc(F)cc4F)CC3)cc2s1
IC50 [1]: 8310 nM

SMILES: COc1ccc(C(=O)N2CC3CCC(C2)N3C(=O)/C=C/c2ccc(Br)cc2)cc1
IC50 [1]: > 10000 nM

SMILES: Nc1nc2ccc(C(=O)N3CCN(C(=O)/C=C/c4ccc(F)c(F)c4)CC3)cc2s1
IC50 [1]: 1250 nM

SMILES: Cc1cc2ccc(C(=O)N3CCN(C(=O)/C=C/c4ccc(Br)cc4)CC3)cc2[nH]1
IC50 [1]: 7.61 nM

SMILES: COc1ccc(C(=O)NC23CC(NC(=O)/C=C/c4ccc(Br)cc4)(C2)C3)cc1
IC50 [1]: > 10000 nM

SMILES: COc1ccc(C(=O)N2CCN(C(=O)/C=C/c3ccc(Br)cc3)CC2)cc1
half-life [7]: 2.19 h
Cmax [9]: 640 ng/mL
Cmax [10]: 612 ng/mL
bioavailability [12]: 71.4%
half-life [13]: 1.17 h
Vd [16]: 1.75 L/kg
IC50 (U-937 [19]): 4.5 nM
clearance [23]: 17.3 mL/min/kg
AUC(0-inf) [37]: 966 ng·h/mL
microsomal CLint [41]: 46 µL/min/mg
AUC(0-inf) [40]: 2070 ng·h/mL

SMILES: Cn1ccc2ccc(C(=O)N3CCN(C(=O)/C=C/c4ccc(Br)cc4)CC3)cc21
IC50 [1]: 7.9 nM

SMILES: Nc1nc2ccc(C(=O)N3CCN(C(=O)/C=C/c4ccc(F)cc4)CC3)cc2s1
IC50 [1]: 866 nM

SMILES: CNc1nc2ccc(C(=O)N3CCN(C(=O)/C=C/c4ccc(Br)cc4)CC3)cc2s1
IC50 [1]: 6.23 nM

SMILES: O=C(/C=C/c1ccc(Br)cc1)N1CCN(C(=O)c2ccc3nc(C(F)(F)F)sc3c2)CC1
IC50 [1]: 2.54 nM

SMILES: COc1cc(C(C)NC(=O)Cc2c(C)nc(C)[nH]c2=O)cc(OC)c1OC (configuration not stated)
IC50 [42]: 8.31 nM

More lines, main results first:

IC50 [1]: 54.2 nM
SMILES: COc1ccc(NC(=O)CC2CCN(C(=O)/C=C/c3ccc(Br)cc3)CC2(F)F)cc1 (configuration not stated)

IC50 [1]: > 10000 nM
SMILES: O=C(/C=C/c1ccc(Br)cc1)N1CCN(C(=O)c2ccc3nc(S)[nH]c3c2)CC1

half-life at 10 µM [2]: 6.42 h
IC50 [3]: 0.88 nM
IC50 [1]: 0.82 nM
IC50 [6]: 1.83 nM
half-life [7]: 2.24 h
remaining at 1 h, 1 µM [8]: 95.9%
Cmax [9]: 817 ng/mL
Cmax [10]: 828 ng/mL
bioavailability [12]: 71.1%
half-life [13]: 1.61 h
Stability [15]: 91.5%
Vd [16]: 1.21 L/kg
remaining at 1 h, 1 µM [18]: 96.5%
IC50 (U-937 [19]): 0.73 nM
clearance [23]: 8.72 mL/min/kg
Stability [24]: 98.4%
t1/2 [25]: 1.36 h
Kb [27]: 0.617 nM
t1/2 [28]: 2.35 h
Stability [34]: 96.2%
IC50 [36]: 0.82 nM
AUC(0-inf) [37]: 1920 ng·h/mL
t1/2 [39]: 2.52 h
AUC(0-inf) [40]: 4090 ng·h/mL
SMILES: Nc1nc2ccc(C(=O)N3CCN(C(=O)/C=C/c4ccc(Br)cc4)CC3)cc2s1
Activity (Mus musculus [4]): Active
Activity (U-937 [5]): Active
Activity (U-937 [11]): Active
Activity [14]: Non-Toxic
Activity [17]: Non-Toxic
Activity (Mus musculus [20]): Active
Activity (Mus musculus [21]): Active
Activity [22]: Non-Toxic
Activity (Mus musculus [26]): Active
Activity [29]: Non-Toxic
Activity (Mus musculus [30]): Dose-Dependent Effect
Activity [31]: Non-Toxic
Activity (U-937 [32]): inactive
Activity [33]: Non-Toxic
Activity (Mus musculus [35]): Active
Activity (Mus musculus [38]): Active

IC50 [1]: 76.9 nM
SMILES: O=C(Nc1nc2ccc(C(=O)N3CCN(C(=O)/C=C/c4ccc(Br)cc4)CC3)cc2s1)C1CC1

IC50 [1]: 43.6 nM
SMILES: Nc1nc2ccc(C(=O)N3CCN(C(=O)/C=C/c4ccc5c(c4)OC(F)(F)O5)CC3)cc2s1

IC50 [1]: 74.5 nM
SMILES: Nc1nc2ccc(C(=O)N3CCN(C(=O)/C=C/c4ccc(C(F)(F)F)c(Cl)c4)CC3)cc2s1
